Settings: 283.14 K, Liquid, Vibrating tube method

CCCCCCCCCC [decane]
Settings	mass density [kg/m3]
6497 kPa	742.2
6519 kPa	742.2
6543 kPa	742.1
6560 kPa	742.2
6588 kPa	742.2
6610 kPa	742.2
7156 kPa	742.7
7171 kPa	742.6
7221 kPa	742.7
7240 kPa	742.6
7671 kPa	742.8
7684 kPa	742.9
7747 kPa	743
7758 kPa	743
7770 kPa	743
8186 kPa	743.2
8201 kPa	743.4
8217 kPa	743.3
8232 kPa	743.3
8252 kPa	743.3
8265 kPa	743.3
8279 kPa	743.3
8296 kPa	743.4
8848 kPa	743.8
8878 kPa	743.7
8907 kPa	743.7
8922 kPa	743.8
8936 kPa	743.9
8949 kPa	743.7
8964 kPa	743.9
8980 kPa	743.8
8992 kPa	743.9
9004 kPa	743.8
9019 kPa	743.8
9029 kPa	743.9
9038 kPa	743.8
9050 kPa	743.9
9059 kPa	743.9
9071 kPa	743.8
9080 kPa	743.9
9717 kPa	744.3
10364 kPa	744.7
10421 kPa	744.9
10435 kPa	744.9
10472 kPa	744.9
10482 kPa	744.8
10525 kPa	744.9
10552 kPa	744.9
10563 kPa	744.8
10574 kPa	745
10588 kPa	744.9
10597 kPa	744.9
10608 kPa	745
10620 kPa	745
10631 kPa	745
10646 kPa	745
10659 kPa	745
10673 kPa	745
10999 kPa	745.3
11564 kPa	745.6
11578 kPa	745.6
11593 kPa	745.6
11608 kPa	745.6
11694 kPa	745.7
11712 kPa	745.6
11728 kPa	745.8
11741 kPa	745.7
11759 kPa	745.7
13134 kPa	746.6
13157 kPa	746.7
13176 kPa	746.7
13196 kPa	746.7
13216 kPa	746.6
13236 kPa	746.7
13256 kPa	746.6
13276 kPa	746.7
13296 kPa	746.7
13358 kPa	746.8
13379 kPa	746.8
13400 kPa	746.9
13421 kPa	746.8
13438 kPa	746.8
13465 kPa	746.8
13489 kPa	746.9
13507 kPa	746.8
13528 kPa	746.8
13546 kPa	746.8
13574 kPa	746.9
13613 kPa	747
14239 kPa	747.3
14264 kPa	747.4
14287 kPa	747.4
14316 kPa	747.4
14335 kPa	747.4
14461 kPa	747.5
15158 kPa	748
15181 kPa	747.9
15201 kPa	748.1
15221 kPa	748
15259 kPa	748.1
15288 kPa	748
15328 kPa	748
16053 kPa	748.5
17575 kPa	749.4
17600 kPa	749.6
17681 kPa	749.6
18272 kPa	750
18327 kPa	750.1
18353 kPa	749.9
18410 kPa	750.1
18436 kPa	750.1
18466 kPa	750.1
18497 kPa	750.2
18520 kPa	750.2
18543 kPa	750.1
18605 kPa	750.2
18628 kPa	750.2
19272 kPa	750.6
19319 kPa	750.6
19342 kPa	750.7
19377 kPa	750.7
19413 kPa	750.7
20535 kPa	751.4
20578 kPa	751.3
20601 kPa	751.5
21429 kPa	752
21453 kPa	752
21475 kPa	751.9
21504 kPa	752
21533 kPa	752
21563 kPa	752.1
21589 kPa	752
21622 kPa	752.2
21647 kPa	752.1
21669 kPa	752.1
21696 kPa	752
21719 kPa	752.2

Reference: the NIST ThermoML archive (doi:10.1021/je800110r)
